One test concerns 4T1. The test can be described thus: Antiproliferative activity against 4T1 cells (unknown origin). The class given is functional, cell-based. To be noted: Mus musculus.
The next test has as its system MDA-MB-231. In words: Antiproliferative activity against MDA-MB-231 cells (unknown origin). The class given is functional, cell-based. The conditions noted are these: Homo sapiens.
For test [1], the target named is T1, Epidermal growth factor receptor (Homo sapiens, UniProt P00533). In words: Inhibition of human EGFR.
The target of test [2] is Proto-oncogene tyrosine-protein kinase Src (Homo sapiens, UniProt P12931). In words: Inhibition of Src (unknown origin).
A short description of test [3]: Antiproliferative activity against human HTh104 cells harboring BRAF V600E mutation assessed as cell growth inhibition at 5 uM by cell counting assay. Type of test: functional.
Test [4] can be described thus: Antiproliferative activity against human HTh7 cells harboring Ras mutation assessed as cell growth inhibition at 5 uM by cell counting assay. Type of test: functional.
A short description of test [5]: Antiproliferative activity against human C643 cells harboring Ras mutation assessed as cell growth inhibition at 5 uM by cell counting assay. Type of test: functional.
The next test deals with FTC-133. In words: Antiproliferative activity against human FTC-133 cells harboring PTEN mutation assessed as cell growth inhibition at 5 uM by cell counting assay. The class given is functional.
For another test, the system named is TPC1. The test can be described thus: Antiproliferative activity against human TPC1 cells harboring RET/PTC mutation assessed as cell growth inhibition at 5 uM by cell counting assay. Type of test: functional.
The subject of a further test is SW-1736. The test can be described thus: Antiproliferative activity against human SW-1736 cells harboring BRAF V600E mutation assessed as cell growth inhibition at 5 uM by cell counting assay. Type of test: functional.
The next test has as its target Aurora kinase A (Homo sapiens, UniProt O14965). In words: Inhibition of AURA (unknown origin).
Test [6] has as its target Serine/threonine-protein kinase mTOR (Homo sapiens, UniProt P42345). In words: Inhibition of mTOR (unknown origin) by ELISA based kinase assay.
For a further test, the system named is BCPAP. In words: Antiproliferative activity against human BCPAP cells harboring BRAF V600E mutation assessed as cell growth inhibition at 5 uM by cell counting assay. The class given is functional.
The test system of a further test is COLO 205. In words: Antiproliferative activity against human COLO 205 cells at 10 uM by MTT assay. The class given is functional, cell-based. On the technique in general: Tetrazolium assays rely on reduction of a dye to a coloured formazan, in cell work by metabolically active cells.
A further test deals with MCF7. The test can be described thus: Antiproliferative activity against human MCF7 cells at 10 uM by MTT assay. Type of test: functional, cell-based.
Another test concerns HCT-116. The test can be described thus: Antiproliferative activity against human HCT-116 cells at 10 uM by MTT assay. The class given is functional, cell-based.
In a further test the test system is A-375. In words: Antiproliferative activity against human A-375 cells at 10 uM by MTT assay. The class given is functional, cell-based.
The next test relates to A549. The test can be described thus: Antiproliferative activity against human A549 cells at 10 uM by MTT assay. Type of test: functional, cell-based.
Test [7] concerns the target Serine/threonine-protein kinase B-raf (Homo sapiens, UniProt P15056, V600E). The test can be described thus: Inhibition of human BRAF V600E mutant.
The test system of another test is LoVo. The test can be described thus: Antiproliferative activity against human LoVo cells at 10 uM by MTT assay. The class given is functional, cell-based.
For test [8], the target named is Vascular endothelial growth factor receptor 2 (Homo sapiens, UniProt P35968). In words: Inhibition of VEGFR2 (unknown origin) by invitro kinase assay.
The target of test [9] is Proto-oncogene tyrosine-protein kinase receptor Ret (Homo sapiens, UniProt P07949). The test can be described thus: Inhibition of RET (unknown origin) by invitro kinase assay.
Test [10] has as its target Proto-oncogene tyrosine-protein kinase receptor Ret (Homo sapiens, UniProt P07949, V804M). The test can be described thus: Inhibition of RET V804M mutant (unknown origin) by invitro kinase assay.
The next test deals with MES-SA. The test can be described thus: Antiproliferative activity against human MES-SA cells assessed as growth inhibition and measured after 96 hrs by micro plate reader analysis. Type of test: functional, cell-based.
The target of test [11] is T1, Epidermal growth factor receptor. In words: Inhibition of human EGFR phosphorylation by invitro enzyme assay.
For a further test, the system named is DU-145. In words: Antiproliferative activity against human DU-145 cells assessed as growth inhibition and measured after 96 hrs by micro plate reader analysis. The class given is functional, cell-based. To be noted: DU-145, 96 h.

Bounds are passed on as bounds.

T1 sequence (P00533 whole entry): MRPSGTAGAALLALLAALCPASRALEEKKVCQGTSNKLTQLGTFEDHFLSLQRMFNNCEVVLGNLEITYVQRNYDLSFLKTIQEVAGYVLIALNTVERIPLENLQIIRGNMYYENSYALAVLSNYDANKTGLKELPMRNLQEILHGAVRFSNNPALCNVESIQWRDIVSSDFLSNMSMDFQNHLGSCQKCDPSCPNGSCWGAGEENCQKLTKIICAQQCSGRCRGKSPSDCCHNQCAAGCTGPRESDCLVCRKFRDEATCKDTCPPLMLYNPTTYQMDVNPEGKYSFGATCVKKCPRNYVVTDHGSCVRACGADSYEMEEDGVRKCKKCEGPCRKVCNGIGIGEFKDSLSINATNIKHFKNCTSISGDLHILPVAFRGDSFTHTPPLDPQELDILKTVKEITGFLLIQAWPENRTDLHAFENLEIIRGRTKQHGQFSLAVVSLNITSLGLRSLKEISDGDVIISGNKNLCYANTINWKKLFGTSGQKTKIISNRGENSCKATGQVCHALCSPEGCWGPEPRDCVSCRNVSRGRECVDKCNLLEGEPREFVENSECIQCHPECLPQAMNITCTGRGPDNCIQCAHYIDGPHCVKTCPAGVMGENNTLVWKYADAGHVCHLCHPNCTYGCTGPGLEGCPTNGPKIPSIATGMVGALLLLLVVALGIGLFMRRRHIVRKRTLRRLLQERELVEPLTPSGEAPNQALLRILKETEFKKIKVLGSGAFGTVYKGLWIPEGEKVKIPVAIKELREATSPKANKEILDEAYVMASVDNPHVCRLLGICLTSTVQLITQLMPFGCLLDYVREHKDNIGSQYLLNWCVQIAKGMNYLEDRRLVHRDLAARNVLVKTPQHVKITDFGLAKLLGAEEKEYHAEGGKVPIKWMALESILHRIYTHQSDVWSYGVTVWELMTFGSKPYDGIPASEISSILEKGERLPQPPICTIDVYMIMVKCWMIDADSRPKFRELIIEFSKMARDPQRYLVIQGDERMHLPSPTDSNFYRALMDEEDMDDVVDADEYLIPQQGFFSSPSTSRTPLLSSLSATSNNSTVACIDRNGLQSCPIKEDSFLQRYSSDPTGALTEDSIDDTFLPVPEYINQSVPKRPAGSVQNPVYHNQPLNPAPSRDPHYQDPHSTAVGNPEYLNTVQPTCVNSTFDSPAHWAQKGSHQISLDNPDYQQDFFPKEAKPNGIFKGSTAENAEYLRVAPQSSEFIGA
Aurora kinase A, sequence (O14965 whole entry): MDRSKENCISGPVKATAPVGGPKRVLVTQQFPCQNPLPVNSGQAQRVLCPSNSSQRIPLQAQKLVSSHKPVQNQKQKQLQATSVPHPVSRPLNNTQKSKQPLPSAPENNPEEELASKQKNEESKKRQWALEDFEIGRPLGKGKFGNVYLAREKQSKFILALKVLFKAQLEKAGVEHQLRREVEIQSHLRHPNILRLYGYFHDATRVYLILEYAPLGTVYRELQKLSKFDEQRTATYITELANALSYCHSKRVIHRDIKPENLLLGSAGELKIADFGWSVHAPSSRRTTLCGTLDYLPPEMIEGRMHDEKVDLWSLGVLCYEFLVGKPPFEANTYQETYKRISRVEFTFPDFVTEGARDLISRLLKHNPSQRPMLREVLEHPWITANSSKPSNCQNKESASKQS
Serine/threonine-protein kinase B-raf, sequence (P15056 2-766 V600E limits assumed): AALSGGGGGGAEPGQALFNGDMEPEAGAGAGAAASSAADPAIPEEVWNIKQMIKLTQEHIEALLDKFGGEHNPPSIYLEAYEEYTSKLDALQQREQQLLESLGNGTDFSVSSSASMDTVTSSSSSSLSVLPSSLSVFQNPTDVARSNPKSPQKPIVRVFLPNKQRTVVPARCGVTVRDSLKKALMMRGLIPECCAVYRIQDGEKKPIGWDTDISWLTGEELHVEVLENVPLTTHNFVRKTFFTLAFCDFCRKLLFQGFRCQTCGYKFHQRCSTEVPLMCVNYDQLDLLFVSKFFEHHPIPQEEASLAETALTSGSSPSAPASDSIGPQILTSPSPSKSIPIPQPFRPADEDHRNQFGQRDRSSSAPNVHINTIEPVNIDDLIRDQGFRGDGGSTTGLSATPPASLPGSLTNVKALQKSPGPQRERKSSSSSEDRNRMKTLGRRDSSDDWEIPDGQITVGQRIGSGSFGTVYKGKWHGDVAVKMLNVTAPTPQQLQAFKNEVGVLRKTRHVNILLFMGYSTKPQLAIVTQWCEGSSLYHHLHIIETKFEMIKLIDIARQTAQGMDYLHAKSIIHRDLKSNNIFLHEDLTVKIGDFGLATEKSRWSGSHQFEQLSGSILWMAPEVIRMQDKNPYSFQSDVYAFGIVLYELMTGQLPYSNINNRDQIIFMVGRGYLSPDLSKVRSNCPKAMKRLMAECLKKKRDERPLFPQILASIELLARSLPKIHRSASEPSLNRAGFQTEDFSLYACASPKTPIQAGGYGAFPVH
Proto-oncogene tyrosine-protein kinase receptor Ret (Homo sapiens, UniProt P07949, V804M), sequence (P07949 29-1114 V804M limits assumed): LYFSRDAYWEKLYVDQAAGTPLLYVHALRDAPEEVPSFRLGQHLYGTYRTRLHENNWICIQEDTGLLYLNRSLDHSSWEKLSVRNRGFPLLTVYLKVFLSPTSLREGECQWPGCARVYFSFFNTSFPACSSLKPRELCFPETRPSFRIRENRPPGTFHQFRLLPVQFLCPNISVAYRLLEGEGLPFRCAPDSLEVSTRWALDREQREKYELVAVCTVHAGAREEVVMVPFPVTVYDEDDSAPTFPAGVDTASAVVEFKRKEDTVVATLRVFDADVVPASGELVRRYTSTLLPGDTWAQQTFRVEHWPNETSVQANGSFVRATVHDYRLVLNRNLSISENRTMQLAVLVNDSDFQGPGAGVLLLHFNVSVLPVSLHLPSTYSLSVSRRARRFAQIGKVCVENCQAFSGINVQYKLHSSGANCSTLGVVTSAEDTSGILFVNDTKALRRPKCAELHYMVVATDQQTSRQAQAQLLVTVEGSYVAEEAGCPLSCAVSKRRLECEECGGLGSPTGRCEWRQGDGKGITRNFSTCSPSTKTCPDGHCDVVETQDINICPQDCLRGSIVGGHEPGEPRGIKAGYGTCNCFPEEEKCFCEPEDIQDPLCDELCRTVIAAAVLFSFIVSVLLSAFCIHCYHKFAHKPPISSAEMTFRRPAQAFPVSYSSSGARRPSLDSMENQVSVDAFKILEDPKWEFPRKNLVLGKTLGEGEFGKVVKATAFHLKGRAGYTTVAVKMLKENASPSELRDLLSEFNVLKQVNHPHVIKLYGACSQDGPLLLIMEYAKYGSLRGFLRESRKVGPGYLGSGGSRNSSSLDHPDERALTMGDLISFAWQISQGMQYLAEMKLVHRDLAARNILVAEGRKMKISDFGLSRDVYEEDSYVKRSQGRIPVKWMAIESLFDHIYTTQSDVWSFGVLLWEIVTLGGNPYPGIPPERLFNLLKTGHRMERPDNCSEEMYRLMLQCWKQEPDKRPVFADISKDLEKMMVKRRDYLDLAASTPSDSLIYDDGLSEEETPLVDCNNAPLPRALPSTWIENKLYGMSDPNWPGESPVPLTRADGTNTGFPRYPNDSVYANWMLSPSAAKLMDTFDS
Proto-oncogene tyrosine-protein kinase Src, sequence (P12931 2-536 limits assumed): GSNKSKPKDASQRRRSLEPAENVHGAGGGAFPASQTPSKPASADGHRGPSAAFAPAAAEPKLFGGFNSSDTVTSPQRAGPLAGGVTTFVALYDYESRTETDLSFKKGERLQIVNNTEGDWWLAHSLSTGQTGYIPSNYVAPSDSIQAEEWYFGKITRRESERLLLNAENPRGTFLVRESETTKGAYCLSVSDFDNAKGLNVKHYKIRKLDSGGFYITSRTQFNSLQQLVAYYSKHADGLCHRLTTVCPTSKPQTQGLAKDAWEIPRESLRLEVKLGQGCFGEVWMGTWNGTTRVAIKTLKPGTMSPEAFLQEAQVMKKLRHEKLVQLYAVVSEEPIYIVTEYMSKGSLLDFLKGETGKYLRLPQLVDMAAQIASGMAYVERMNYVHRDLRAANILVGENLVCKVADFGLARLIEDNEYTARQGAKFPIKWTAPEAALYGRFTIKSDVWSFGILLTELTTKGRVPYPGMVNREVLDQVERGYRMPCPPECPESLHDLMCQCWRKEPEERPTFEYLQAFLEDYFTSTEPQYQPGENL

Broadly, the IC50 is the concentration that inhibits the measured activity by half. Turning to `CN(CCOC(=O)c1ccc(C(=O)Nc2ncnc3c2c(-c2ccc(Cl)cc2)nn3C(C)(C)C)nc1)Cc1ccc(C(=O)Nc2ccc3ncnc(Nc4cccc(Cl)c4)c3c2)cc1`, the IC50 in the test on 4T1 worked out at 5.6 µM; in the test on MDA-MB-231, 7.34 µM; in test [1], 0.61 µM; in test [2] it was 1.1 µM.

One may read the GI50 as the concentration that inhibits growth by half. With `Cc1cc(S(=O)(=O)Nc2ccc(/C=C3\SC(=O)N(CC4(C)CCCCC4)C3=O)cc2)ccc1[N+](=O)[O-]`, the 50% growth inhibitory concentration (GI50) in [3] worked out at 3.37 µM; in [4] it was 1.36 µM; in test [5], 4.51 µM; in the test with FTC-133 it was 5.9 µM; in the test on TPC1, 7.26 µM; with SW-1736, 4.21 µM. In addition, the GI50 in the test with BCPAP amounted to 3.79 µM. Besides, the concentration for half-maximal inhibition (IC50) against Aurora kinase A worked out at 0.035 µM; in test [6], 8.23 µM.

On to `CN(c1nc(-c2cnc(N)nc2)nc(N2CCOCC2)n1)C1CCN(C(=O)c2ccccc2)CC1`, for which the 50% inhibitory concentration (IC50) in the test on COLO 205 came to 0.09 µM; with MCF7, 0.5 µM; with HCT-116 it was 0.11 µM; with A-375 it was 0.1 µM; in the test on A549, 0.09 µM; in [7], 0.118 µM. In the test with LoVo, this compound showed an IC50 of 0.08 µM.

For the compound `O=C(Cc1ccc(-n2cnc3cc(-c4ccsc4)ccc32)cc1)Nc1cccc(C(F)(F)F)c1`, the concentration for half-maximal inhibition (IC50) in [8], in test [9] and in [10] was less than 0.001 µM in each case.

Regarding `COc1cccc(-c2cc(=O)c3ccccc3o2)c1NC(=O)OCCOC(=O)NCCN(C)CCN/N=N/c1ccc2c(Nc3cccc(Cl)c3)ncnc2c1`, the concentration for half-maximal inhibition (IC50) with MES-SA was 24.5 µM; in test [11] it was 0.102 µM; in the test with DU-145 it was 11.3 µM.

These data come from ChEMBL document CHEMBL5241052, “Dual-target kinase drug design: Current strategies and future directions in cancer therapy” (Eur J Med Chem, 2020).
